In test [1] the test system is Mus musculus. The test can be described thus: Anesthetic activity determined as hypnotic dose by intravenous administration in male MF-1 mice. It counts as functional.
Test [2] has as its system Mus musculus. In words: Anesthetic activity as hypnotic dose by intravenous administration in male MF-1 mice; Convulsant. It counts as functional, organism-based.
Test [3] is filed under the species Rattus norvegicus. In words: (§1) Parameter value extracted from closed loop infusions to maintain 60% Mean burst suppression ratio (BSR) for 1 h periods. In kind it is functional, organism-based.
Test [4] concerns Mus musculus. The test can be described thus: Anesthetic activity as hypnotic dose by intravenous administration in male MF-1 mice. It counts as functional.
For test [5], the target named is GABA-A receptor; anion channel. In words: Inhibition of [35S]TBPS binding to GABA-A receptor rat whole brain membranes. In kind it is cell membranes.
For test [6], the system named is Rattus norvegicus. In words: Dose for 60% Mean burst suppression ratio (BSR) after the start of a 10 s iv bolus injection of compound. It counts as functional.
The species entered for test [7] is Rattus norvegicus. The test is described as §1. It counts as functional.
In test [8] the test system is Rattus norvegicus. In words: Time for Mean burst suppression ratio (BSR) after the start of a 10 s iv bolus injection of compound. In kind it is functional.
In test [9] the test system is Rattus norvegicus. The test can be described thus: Time to 30% Mean burst suppression ratio (BSR) after the start of a 10 s iv bolus injection of compound. In kind it is functional.
In test [10] the test system is Rattus norvegicus. The test can be described thus: Time to 1st 0.25 s BS epoch (s) of Mean burst suppression ratio (BSR) after the start of a 10 s iv bolus injection of compound. In kind it is functional.
Test [11] is filed under the species Rattus norvegicus. The test can be described thus: Parameter value extracted from closed loop infusions to maintain 60% Mean burst suppression ratio (BSR) for 1 hr periods. It counts as functional.
For test [12], the system named is Rattus norvegicus. The test can be described thus: Time to righting for Mean burst suppression ratio (BSR) after the start of a 10 s iv bolus injection of compound. In kind it is functional.

Structures are written as SMILES.

In turn, `CCOCCN(CCOCC)C(CCOC)C(=O)Oc1c(OC)cccc1OC` (configuration not stated) showed an HD50 in test [1] of 28 µM/kg. Turning to `CCOCCN(CCOCC)CC(C(=O)Oc1c(OC)cccc1OC)N(CCOCC)CCOCC` (configuration not stated), the HD50 entry in [2] is on record as “Convulsant”.

For the compound `CCOCCC(C(=O)Oc1c(OC)cccc1OC)N(CCOCC)CCOCC` (configuration not stated), the HD50 in test [1] was 47 µM/kg.

For the compound `COCCC(C(=O)Oc1c(OC)cccc1OC)N1CCCOCC1` (stereo in doubt; 31), the HD50 in [1] was found to be 15 µM/kg. The same measure, in the same setting: then `COCCC(C(=O)Oc1c(OC)cccc1OC)N1C=CCCC1` (configuration not stated), with 22 µM/kg. For `COCC(C(=O)Oc1c(OC)cccc1OC)N1CCCOCC1` (single isomer, unassigned; form 1) [listing 1 of 2 here], the Stability of BSR in [3] came to 2.5%.

`COc1cccc(OC)c1OC(=O)C(CN1CCOCC1)N1CCOCC1` (configuration not stated): in [4], the HD50 was found to be 38 µM/kg.

`CCOCCC(C(=O)Oc1c(OC)cccc1OC)N1CCCOCC1` (stereo in doubt): the HD50 in test [1] was found to be 15 µM/kg. In turn, `COCCC(C(=O)Oc1c(OC)cccc1OC)N1CCCCCC1` (configuration not stated) came in with an HD50 in [1] of 17 µM/kg. The compound `COc1cccc(OC)c1OC(=O)C(CN1CCSCC1)N1CCOCC1` (configuration not stated) registered an HD50 in [4] of 17 µM/kg. The same measure, in the same setting: then `COc1cccc(OC)c1OC(=O)C1CN(C)CCN1Cc1ccccc1` (configuration not stated), with 122 µM/kg.

As to `CCOCCN(CCOCC)CC(C(=O)Oc1c(OC)cccc1OC)N1CCOCC1` (configuration not stated), the HD50 entry in test [2] is listed as “Convulsant”.

In test [1], `COCC(C(=O)Oc1c(OC)cccc1OC)N1CCOCC1` (configuration not stated) registered an HD50 of 54 µM/kg. On to `COCCC(C(=O)Oc1c(OC)cccc1OC)N1CCOCC1` (configuration not stated), for which, in test [1], the HD50 was found to be 38 µM/kg. In turn, `COc1cccc(OC)c1OC(=O)C(CN1CCOCC1)N1CCc2ccccc2C1` (configuration not stated) registered an HD50 in test [4] of 21 µM/kg.

The compound `CCOCCC(C(=O)Oc1c(OC)cccc1OC)N1CCOCC1` (configuration not stated) registered an HD50 in test [1] of 36 µM/kg. Regarding `CCOCCC(C(=O)Oc1c(OC)cccc1OC)N1CCCOCC1` (stereo in doubt; 39), the HD50 in test [1] amounted to 23 µM/kg. `COCCC(C(=O)Oc1c(OC)cccc1OC)N1CCCOCC1` (single isomer, unassigned; form 1) yielded an HD50 in test [1] of 30 µM/kg. The IC50 (commonly the concentration that gives 50% inhibition) in test [5] was above 100 µM. The corresponding values for `CCOCCC(C(=O)Oc1c(OC)cccc1OC)N1CCCOCC1` (single isomer, unassigned) are 48 µM/kg and above 100 µM. In the case of `COCC(C(=O)Oc1c(OC)cccc1OC)N1CCCOCC1` (single isomer, unassigned; form 1) [listing 2 of 2 here], the Dose in [6] is 11.4 µM/kg. Further, the Time to righting in test [7] turned out to be 6.8 min. The Time worked out at 32 s in test [8], 1.3 min in test [9], 12.9 s in test [10] and 3.3 min in test [12]. In test [1], this compound showed an HD50 of 16 µM/kg. For the same compound, in [11], the Infusion rate is 5 µM/min/kg. The “Time to 30% BSR” value in [11] came out at 2.4 min. Moreover, in test [5], the IC50 is 35.8 µM.

On to `CCOCC(C(=O)Oc1c(OC)cccc1OC)N1CCCOCC1` (configuration not stated), for which the HD50 in test [1] came out at 20 µM/kg. Still for that read-out and setting: then `COCCC(C(=O)Oc1c(OC)cccc1OC)N(CCOC)CCOC` (configuration not stated), with 27 µM/kg.

In test [4], `COc1cccc(OC)c1OC(=O)C(CN1CCCOCC1)N1CCCOCC1` (configuration not stated) displayed an HD50 below 25 µM/kg. For the compound `COCCCN(CCCOC)C(COC)C(=O)Oc1c(OC)cccc1OC` (configuration not stated), the HD50 in [1] stood at 46 µM/kg. Still for that read-out and setting: then `COCC(C(=O)Oc1c(OC)cccc1OC)N1CCCCC1` (configuration not stated), with 146 µM/kg. In test [1], `COCC(C(=O)Oc1c(OC)cccc1OC)N1CCCOCC1` (stereo in doubt; 26) had an HD50 of 30 µM/kg. In [5], this compound came in with an IC50 of 35 µM.

`COc1cccc(OC)c1OC(=O)C(CN1CCOCC1)N1CCSCC1` (configuration not stated) showed an HD50 in [4] of 19 µM/kg. With `COCCN(CCOC)CC(C(=O)Oc1c(OC)cccc1OC)N(CCOC)CCOC` (configuration not stated), the HD50 result in test [2] was “Convulsant”. As to `COc1cccc(OC)c1OC(=O)C1CNCCN1Cc1ccccc1` (configuration not stated), the HD50 result in test [2] was “Convulsant”. With `COCC(C(=O)Oc1c(OC)cccc1OC)N1CCCOCC1` (single isomer, unassigned; form 2), the HD50 in test [1] was 40 µM/kg. Further, the IC50 in [5] turned out to be 98.3 µM. `CC(C)c1cccc(C(C)C)c1O` [PROPOFOL]: the Dose in test [6] worked out at 41 µM/kg. In addition, the Time in [8] was determined as 30 s; in test [9], 1.5 min; in [10] it was 13.1 s; in test [12], 5.5 min. Further, the HD50 in test [4] was found to be 68 µM/kg.

Compound `CC[C@H](C(=O)Oc1c(OC)cc(C)cc1OC)N(CCOC)CCOC` [ORG-24447] returned an HD50 in test [4] of 22 µM/kg. The compound further registered an IC50 in [5] of 29.3 µM. Consider `COc1cccc(OC)c1OC(=O)C(CN1CCSCC1)N1CCSCC1` (configuration not stated), for which, in test [4], the HD50 was 15 µM/kg. `CCOCCC(C(=O)Oc1c(OC)cccc1OC)N1CCCCCC1` (configuration not stated) yielded an HD50 in test [1] of 25 µM/kg.

For `COCC(C(=O)Oc1c(OC)cccc1OC)N1CCSCC1` (configuration not stated), the HD50 in [1] was 21 µM/kg.

As to `COc1cccc(OC)c1OC(=O)C(CN1CCCCC1)N1CCOCC1` (configuration not stated), the HD50 in test [4] worked out at 15 µM/kg. Regarding `COCCC(C(=O)Oc1c(OC)cccc1OC)N1CCCCC1` (configuration not stated), in test [1], the HD50 was 22 µM/kg. Same read-out and setting: then `CCOCCC(C(=O)Oc1c(OC)cccc1OC)N(CCOC)CCOC` (configuration not stated), with 27 µM/kg. `CCC(=O)N1CCN(Cc2ccccc2)C(C(=O)Oc2c(OC)cccc2OC)C1` (configuration not stated) had an HD50 in [4] of 34 µM/kg. In test [1], `CCOCCN(CCOCC)C(COC)C(=O)Oc1c(OC)cccc1OC` (configuration not stated) showed an HD50 of 25 µM/kg. The compound `COCCC(C(=O)Oc1c(OC)cccc1OC)N1CCCOCC1` (single isomer, unassigned; form 2) returned an IC50 in test [5] of 32.5 µM. `C=CCN1CCN(Cc2ccccc2)C(C(=O)Oc2c(OC)cccc2OC)C1` (configuration not stated) displayed an HD50 in test [4] of 31 µM/kg. For `CCN1CCN(Cc2ccccc2)C(C(=O)Oc2c(OC)cccc2OC)C1` (configuration not stated), the HD50 in [4] was 24 µM/kg.

As to `COCCC(C(=O)Oc1c(OC)cccc1OC)N1CCC(OC)CC1` (configuration not stated), the HD50 in test [1] turned out to be 21 µM/kg. Regarding `CCOCCC(C(=O)Oc1c(OC)cccc1OC)N1CCCOCC1` (racemic), the IC50 in test [5] is 34.9 µM. With `COCCN(CCOC)C(CN1CCOCC1)C(=O)Oc1c(OC)cccc1OC` (configuration not stated), in [4], the HD50 was 75 µM/kg. In the case of `COCCC(C(=O)Oc1c(OC)cccc1OC)N1CCCOCC1` (racemic), in [1], the HD50 stood at 20 µM/kg. Further, the IC50 in test [5] was 69.5 µM.

The values are drawn from ChEMBL document CHEMBL1136532, “Novel water soluble 2,6-dimethoxyphenyl ester derivatives with intravenous anaesthetic activity” (Bioorg Med Chem Lett, 2003).
